Assay results reported in US7781591B2, “Substituted 3-cyanopyridines as protein kinase inhibitors” (Wyeth LLC, priority 2006, dated 2010).

Key:
Type in all cases: biochemical
[1] = target: T1, purified recombinant full length PKC theta (Panvera, P2996) (Homo sapiens, UniProt Q04759); experiment: Radioactive kinase assay for inhibition of full length (FL) PKCθ; conditions: average value
T1 construct: purified recombinant full length PKC theta (Panvera, P2996); purchased Panvera P2996
Protocol: This assay is based on the phosphorylation of a biotinylated substrate by a kinase utilizing radiolabeled ATP (ATP γ P33). The substrate was a biotinylated peptide with a sequence of biotin-[…]-C(O)NH2. […] The assay buffer was composed of 100 mM Hepes, pH7.5, 2 mM MgCl2, 20 mM β-glycerophosphate and 0.008% TritonX 100. A reaction mixture of ATP, ATP γ P33 (PerkinElmer), DTT, and the enzyme was prepared in the assay buffer and added to a 96-well polypropylene plate. The compound (diluted in DMSO in a separate 96-well polypropylene plate) was added to the reaction mixture and incubated at room temperature. Following the incubation, the peptide substrate was added to the reaction mixture to initiate the enzymatic reaction. The reaction was terminated with the addition of a stop solution (100 mM EDTA, 0.2% TritonX100, and 20 mM NaHPO4) and transferred from the assay plate to a washed streptavidin-coated 96-well scintiplate (PerkinElmer). […] Counts were recorded for each well as corrected counts per minute (CCPM). The counts were considered corrected because they were adjusted according to a P33 normalization protocol, which corrects for efficiency and background differences between the instrument detectors (software version 4.40.01).
A Radioactive Kinase Assay for Inhibition of Full Length (FL) PKCθ Inhibitors
This assay differs from what was described above in that the enzyme used was purified recombinant full length PKC theta (Panvera, P2996).

[2] = target: T2, human PKCθ full length enzyme (Homo sapiens, UniProt Q04759); experiment: PKCθ IMAP assay (fluorescence polarization); conditions: human PKCθ full length enzyme, IMAP; average value; read-out: IC50 PKCθ IMAP
T2 construct: human PKCθ full length enzyme (Panvera Cat# P2996); purchased Panvera P2996
T2 sequence (Q04759 whole entry): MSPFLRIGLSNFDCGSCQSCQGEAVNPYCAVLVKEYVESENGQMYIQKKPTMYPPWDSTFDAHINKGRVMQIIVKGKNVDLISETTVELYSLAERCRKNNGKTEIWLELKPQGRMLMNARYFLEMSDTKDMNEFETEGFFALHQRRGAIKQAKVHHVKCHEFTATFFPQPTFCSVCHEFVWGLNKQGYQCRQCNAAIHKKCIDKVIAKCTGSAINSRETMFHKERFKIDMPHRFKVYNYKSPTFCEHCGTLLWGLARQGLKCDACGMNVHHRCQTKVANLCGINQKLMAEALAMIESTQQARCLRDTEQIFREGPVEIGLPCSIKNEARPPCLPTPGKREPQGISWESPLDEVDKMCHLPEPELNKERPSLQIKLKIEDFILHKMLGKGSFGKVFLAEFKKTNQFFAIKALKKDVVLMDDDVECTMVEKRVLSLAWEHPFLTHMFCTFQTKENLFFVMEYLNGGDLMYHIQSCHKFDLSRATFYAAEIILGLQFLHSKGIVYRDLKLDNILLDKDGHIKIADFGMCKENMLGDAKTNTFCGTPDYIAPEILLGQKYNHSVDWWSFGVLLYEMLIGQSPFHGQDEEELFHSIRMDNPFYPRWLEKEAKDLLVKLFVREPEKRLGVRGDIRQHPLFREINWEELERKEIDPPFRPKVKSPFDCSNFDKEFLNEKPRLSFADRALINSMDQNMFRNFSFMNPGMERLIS

[3] = target: T3, purified recombinant active kinase domain of full length PKC theta (amino acids 362-706) (Homo sapiens, UniProt Q04759); experiment: Radioactive kinase assay for inhibition of the active kinase domain (KD) of PKCθ; conditions: active kinase domain of PKC theta (amino acids 362-706), average value, read-out: IC50 PKCθKD
T3 construct: active kinase domain of full length PKC theta (amino acids 362-706)
T3 sequence (Q04759 362-706): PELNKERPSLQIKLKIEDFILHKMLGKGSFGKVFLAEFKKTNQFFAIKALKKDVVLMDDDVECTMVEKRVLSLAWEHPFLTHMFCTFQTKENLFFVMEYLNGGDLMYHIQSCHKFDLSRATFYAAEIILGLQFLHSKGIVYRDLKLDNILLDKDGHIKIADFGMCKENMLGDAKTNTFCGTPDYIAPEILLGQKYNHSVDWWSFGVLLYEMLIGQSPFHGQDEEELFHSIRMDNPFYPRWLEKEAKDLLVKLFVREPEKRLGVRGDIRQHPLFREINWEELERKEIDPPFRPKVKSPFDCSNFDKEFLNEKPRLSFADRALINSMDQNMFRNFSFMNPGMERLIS
Protocol: A Radioactive Kinase Assay for Inhibition of the Active Kinase Domain (KD) of PKCθ
This assay is based on the phosphorylation of a biotinylated substrate by a kinase utilizing radiolabeled ATP (ATP γ P33). The substrate was a biotinylated peptide with a sequence of biotin-[…]-C(O)NH2. The enzyme was purified recombinant active kinase domain of full length PKC theta (amino acids 362-706). The assay buffer was composed of 100 mM Hepes, pH7.5, 2 mM MgCl2, 20 mM β-glycerophosphate and 0.008% TritonX 100. A reaction mixture of ATP, ATP γ P33 (PerkinElmer), DTT, and the enzyme was prepared in the assay buffer and added to a 96-well polypropylene plate. The compound (diluted in DMSO in a separate 96-well polypropylene plate) was added to the reaction mixture and incubated at room temperature. Following the incubation, the peptide substrate was added to the reaction mixture to initiate the enzymatic reaction. The reaction was terminated with the addition of a stop solution (100 mM EDTA, 0.2% TritonX100, and 20 mM NaHPO4) and transferred from the assay plate to a washed streptavidin-coated 96-well scintiplate (PerkinElmer). The scintiplate was incubated at room temperature, washed in PBS with 0.1% TritonX 100, and counted in the 1450 Microbeta Trilux (Wallac, Version 2.60). Counts were recorded for each well as corrected counts per minute (CCPM). The counts were considered corrected because they were adjusted according to a P33 normalization protocol, which corrects for efficiency and background differences between the instrument detectors (software version 4.40.01).

T1 sequence (Q04759 whole entry): as the sequence (Q04759 whole entry) above

| IC50 [1] [nM] | IC50 [2] [nM] | IC50 [3] [nM] | Structure (SMILES) |
| --- | --- | --- | --- |
| 360 | 320 |  | COCCOc1cc(-c2cncc(C#N)c2Nc2ccc3[nH]ccc3c2)ccc1OC [Compound 154, 4-(1H-indol-5-ylamino)-5-[4-methoxy-3-(2-methoxyethoxy)phenyl]nicotinonitrile] |
| 60 | 16 |  | COCCOc1ccc(-c2cncc(C#N)c2Nc2cccc3[nH]ccc23)cc1OC [Compound 159, 4-(1H-indol-4-ylamino)-5-[3-methoxy-4-(2-methoxyethoxy)phenyl]nicotinonitrile] |
| 70 |  |  | N#Cc1cncc(-c2cccc(OCCN3CCCC3)c2)c1Nc1ccc2[nH]ccc2c1 [Compound 174, 4-(1H-indol-5-ylamino)-5-[3-(2-pyrrolidin-1-ylethoxy)phenyl]nicotinonitrile] |
| 550 |  |  | COCCOc1cc(-c2cncc(C#N)c2Nc2ccc3[nH]c(C)cc3c2)ccc1OC [Compound 157, 5-[4-methoxy-3-(2-methoxyethoxy)phenyl]-4-[(2-methyl-1H-indol-5-yl)amino]nicotinonitrile] |
| 110 |  |  | N#Cc1cncc(-c2cccc(OCCCl)c2)c1Nc1ccc2[nH]ccc2c1 [Compound 167, 5-[3-(2-chloroethoxy)phenyl]-4-(1H-indol-5-ylamino)nicotinonitrile] |
| 3830 |  |  | N#Cc1cncc(-c2cccc(OCCCl)c2)c1Nc1ccc2cc[nH]c2c1 [Compound 166, 5-[3-(2-chloroethoxy)phenyl]-4-(1H-indol-6-ylamino)nicotinonitrile] |
| 530 |  |  | CN1CCN(C(=O)c2ccc(-c3cccc(-c4cncc(C#N)c4Nc4ccc5[nH]ccc5c4)c3)cc2)CC1 [Compound 207, 4-(1H-indol-5-ylamino)-5-{4′-[(4-methylpiperazin-1-yl)carbonyl]biphenyl-3-yl}nicotinonitrile] |
| 1940 |  |  | CC(=O)Nc1cccc(-c2cncc(C#N)c2Nc2ccc3[nH]ccc3c2)c1 [Compound 152, N-{3-[5-cyano-4-(1H-indol-5-ylamino)pyridin-3-yl]phenyl}acetamide] |
| 320 |  |  | COCCOc1ccc(-c2cncc(C#N)c2Nc2ccc3[nH]c(C)cc3c2)cc1OC [Compound 163, 5-[3-methoxy-4-(2-methoxyethoxy)phenyl]-4-[(2-methyl-1H-indol-5-yl)amino]nicotinonitrile] |
| > 20000 |  |  | COCCOc1cc(-c2cncc(C#N)c2Nc2ccc3ncsc3c2)ccc1OC [Compound 156, 4-(1,3-benzothiazol-6-ylamino)-5-[4-methoxy-3-(2-methoxyethoxy)phenyl]nicotinonitrile] |
| 360 |  |  | COc1ccc(-c2cncc(C#N)c2Nc2cc(C)c3[nH]ccc3c2)cc1OC [Compound 217, 5-(3,4-dimethoxyphenyl)-4-[(7-methyl-1H-indol-5-yl)amino]nicotinonitrile] |
| 1140 |  |  | N#Cc1cncc(-c2cccc(-c3ccc(C(=O)N4CCOCC4)cc3)c2)c1Nc1ccc2[nH]ccc2c1 [Compound 206, 4-(1H-indol-5-ylamino)-5-[4′-(morpholin-4-ylcarbonyl)biphenyl-3-yl]nicotinonitrile] |
| 190 |  |  | N#Cc1cncc(-c2cccc(-c3ccc(C(=O)NCc4ccccc4)cc3)c2)c1Nc1ccc2[nH]ccc2c1 [Compound 204, N-benzyl-3′-[5-cyano-4-(1H-indol-5-ylamino)pyridin-3-yl]biphenyl-4-carboxamide] |
| 40 |  |  | COCCOc1cc(-c2cncc(C#N)c2Nc2cccc3[nH]ccc23)ccc1OC [Compound 153, 4-(1H-indol-4-ylamino)-5-[4-methoxy-3-(2-methoxyethoxy)phenyl]nicotinonitrile] |
| 2630 |  |  | N#Cc1cncc(-c2cccc(OCCN3CCOCC3)c2)c1Nc1ccc2cc[nH]c2c1 [Compound 173, 4-(1H-indol-6-ylamino)-5-[3-(2-morpholin-4-ylethoxy)phenyl]nicotinonitrile] |
| 37400 |  |  | COCCOc1cc(-c2cncc(C#N)c2Nc2ccc3[nH]nnc3c2)ccc1OC [Compound 158, 4-(1H-1,2,3-benzotriazol-5-ylamino)-5-[4-methoxy-3-(2-methoxyethoxy)phenyl]nicotinonitrile] |

Second part, the compound before the results:

| Structure (SMILES) | IC50 [1] [nM] | IC50 [2] [nM] | IC50 [3] [nM] |
| --- | --- | --- | --- |
| N#Cc1cncc(-c2cccc(-c3ccc(Cl)cc3)c2)c1Nc1ccc2[nH]ccc2c1 [Compound 131, 5-(4′-chlorobiphenyl-3-yl)-4-(1H-indol-5-ylamino)nicotinonitrile] | 50 | 120 |  |
| COc1ccc(-c2cncc(C#N)c2Nc2ccc3c(c2)OCCO3)cc1OC [Compound 106, 4-(2,3-dihydro-1,4-benzodioxin-6-ylamino)-5-(3,4-dimethoxyphenyl)nicotinonitrile] |  |  | 11400 |
| N#Cc1cncc(-c2cccc(-c3cccc(Cl)c3)c2)c1Nc1ccc2[nH]ccc2c1 [Compound 130, 5-(3′-chlorobiphenyl-3-yl)-4-(1H-indol-5-ylamino)nicotinonitrile] | 80 | 160 |  |
| COc1ccc(-c2cncc(C#N)c2Nc2cccc3c2CCCC3)cc1OC [Compound 105, 5-(3,4-dimethoxyphenyl)-4-(5,6,7,8-tetrahydronaphthalen-1-ylamino)nicotinonitrile] |  |  | 2660 |
| Cc1cccc(-c2cccc(-c3cncc(C#N)c3Nc3ccc4[nH]ccc4c3)c2)c1 [Compound 127, 4-(1H-indol-5-ylamino)-5-(3′-methylbiphenyl-3-yl)nicotinonitrile] | 290 |  |  |
| CN(C)C(=O)c1ccc(-c2cccc(-c3cncc(C#N)c3Nc3ccc4[nH]ccc4c3)c2)cc1 [Compound 122, 3′-[5-cyano-4-(1H-indol-5-ylamino)pyridin-3-yl]-N,N-dimethylbiphenyl-4-carboxamide] | 340 |  |  |
| N#Cc1cncc(-c2ccccc2-c2ccsc2)c1Nc1ccc2[nH]ccc2c1 [Compound 146, 4-(1H-indol-5-ylamino)-5-[2-(3-thienyl)phenyl]nicotinonitrile] | 1330 |  |  |
| N#Cc1cncc(-c2cccc(-c3ccccc3Cl)c2)c1Nc1ccc2[nH]ccc2c1 [Compound 129, 5-(2′-chlorobiphenyl-3-yl)-4-(1H-indol-5-ylamino)nicotinonitrile] | 60 | 240 |  |
| N#Cc1cncc(-c2cccc(-c3cccc(N)c3)c2)c1Nc1ccc2[nH]ccc2c1 [Compound 117, 5-(3′-aminobiphenyl-3-yl)-4-(1H-indol-5-ylamino)nicotinonitrile] | 140 |  |  |
| N#Cc1cncc(-c2cccc(-c3cccnc3)c2)c1Nc1ccc2[nH]ccc2c1 [Compound 137, 4-(1H-indol-5-ylamino)-5-(3-pyridin-3-ylphenyl)nicotinonitrile] | 70 |  |  |
| N#Cc1cncc(-c2cccc(-c3ccsc3)c2)c1Nc1ccc2[nH]ccc2c1 [Compound 141, 4-(1H-indol-5-ylamino)-5-[3-(3-thienyl)phenyl]nicotinonitrile] | 90 |  |  |
| N#Cc1cncc(-c2cccc(-c3cccc(C(=O)O)c3)c2)c1Nc1ccc2[nH]ccc2c1 [Compound 133, 3′-[5-cyano-4-(1H-indol-5-ylamino)pyridin-3-yl]biphenyl-3-carboxylic acid] | 370 |  |  |
| N#Cc1cncc(-c2ccccc2-c2ccc(Cl)cc2)c1Nc1ccc2[nH]ccc2c1 [Compound 145, 5-(4′-chlorobiphenyl-2-yl)-4-(1H-indol-5-ylamino)nicotinonitrile] | 1920 |  |  |
| N#Cc1cncc(-c2ccccc2-c2ccccc2Cl)c1Nc1ccc2[nH]ccc2c1 [Compound 143, 5-(2′-chlorobiphenyl-2-yl)-4-(1H-indol-5-ylamino)nicotinonitrile] | 910 |  |  |
| N#Cc1cncc(-c2cccc(-c3ncccn3)c2)c1Nc1ccc2[nH]ccc2c1 [Compound 138, 4-(1H-indol-5-ylamino)-5-(3-pyrimidin-2-ylphenyl)nicotinonitrile] | 100 | 190 |  |
| CC(=O)Nc1ccc(-c2cccc(-c3cncc(C#N)c3Nc3ccc4[nH]ccc4c3)c2)cc1 [Compound 120, N-{3′-[5-cyano-4-(1H-indol-5-ylamino)pyridin-3-yl]biphenyl-4-yl}acetamide] | 120 | 230 |  |
